Data: ChEMBL document CHEMBL4715829, “Heterodimeric Rifampicin-Tobramycin conjugates break intrinsic resistance of Pseudomonas aeruginosa to doxycycline and chloramphenicol in vitro and in a Galleria mellonella in vivo model” (Eur J Med Chem, 2019)
Values after ≈ are worked out from the molar mass of the structure shown.

Columns and labels:
[1] = system: Staphylococcus epidermidis; test: Antibacterial activity against methicillin-resistance Staphylococcus epidermidis CAN-ICU 61589 (CAZ>32) assessed as reduction in bacterial growth incubated for 18 hrs by broth microdilution assay; format: functional
Escherichia coli = test: Antibacterial activity against gentamicin-resistant Escherichia coli CAN-ICU 61714 assessed as reduction in bacterial growth incubated for 18 hrs by broth microdilution assay; format: functional
Pseudomonas aeruginosa [2] = test: Antibacterial activity against gentamicin-resistant Pseudomonas aeruginosa CAN-ICU 62308 assessed as reduction in bacterial growth incubated for 18 hrs by broth microdilution assay; format: functional
Acinetobacter baumannii = test: Antibacterial activity against Acinetobacter baumannii CAN-ICU 63169 assessed as reduction in bacterial growth incubated for 18 hrs by broth microdilution assay; format: functional
Pseudomonas aeruginosa [3] = test: Antibacterial activity against Pseudomonas aeruginosa 200 harboring efflux mutant assessed as reduction in bacterial growth incubated for 18 hrs by broth microdilution assay; format: functional
Pseudomonas aeruginosa [4] = test: Antibacterial activity against Pseudomonas aeruginosa PAO1 assessed as reduction in bacterial growth by measuring minocycline MIC at <=10 uM in presence of minocycline incubated for 18 hrs by broth microdilution assay based checkerboard assay (reference value: 8 microg/ml); format: functional; details: dose microM <=10
Pseudomonas aeruginosa [5] = test: Antibacterial activity against Pseudomonas aeruginosa PAO1 assessed as reduction in bacterial growth by measuring doxycycline MIC at <=[…] uM in presence of doxycycline incubated for 18 hrs by broth microdilution assay based checkerboard assay (reference value: […] microg/ml); format: functional; details: dose microM <=10
Pseudomonas aeruginosa [6] = test: Antibacterial activity against Pseudomonas aeruginosa PAO1 assessed as reduction in bacterial growth by measuring meropenem MIC at <=10 uM in presence of meropenem incubated for 18 hrs by broth microdilution assay based checkerboard assay (reference value: 1 microg/ml); format: functional; details: dose microM <=10
Pseudomonas aeruginosa [7] = test: Antibacterial activity against Pseudomonas aeruginosa PAO1 assessed as reduction in bacterial growth by measuring trimethoprim MIC at <=10 uM in presence of trimethoprim incubated for 18 hrs by broth microdilution assay based checkerboard assay (reference value: 64 microg/ml); format: functional; details: dose microM <=10
Pseudomonas aeruginosa [8] = test: Antibacterial activity against Pseudomonas aeruginosa PAO1 assessed as reduction in bacterial growth by measuring fosfomycin MIC at <=[…] uM in presence of fosfomycin incubated for 18 hrs by broth microdilution assay based checkerboard assay (reference value: […] microg/ml); format: functional; details: dose microM <=10
Pseudomonas aeruginosa [9] = test: Antibacterial activity against Pseudomonas aeruginosa PAO1 assessed as reduction in bacterial growth by measuring nitrofurantoin MIC at <=10 uM in presence of nitrofurantoin incubated for 18 hrs by broth microdilution assay based checkerboard assay (reference value: 512 microg/ml); format: functional; details: dose microM <=10
Pseudomonas aeruginosa [10] = test: Antibacterial activity against Pseudomonas aeruginosa PAO1 assessed as reduction in bacterial growth by measuring erythromycin MIC at <=10 uM in presence of erythromycin incubated for 18 hrs by broth microdilution assay based checkerboard assay (reference value: 256 microg/ml); format: functional; details: dose microM <=10
Pseudomonas aeruginosa [11] = test: Antibacterial activity against Pseudomonas aeruginosa PAO1 assessed as reduction in bacterial growth by measuring pleuromutilin MIC at <=10 uM in presence of pleuromutilin incubated for 18 hrs by broth microdilution assay based checkerboard assay (reference value: 512 microg/ml); format: functional; details: dose microM <=10
Pseudomonas aeruginosa [12] = test: Antibacterial activity against Pseudomonas aeruginosa PAO1 assessed as reduction in bacterial growth by measuring novobiocin MIC at <=10 uM in presence of novobiocin incubated for 18 hrs by broth microdilution assay based checkerboard assay (reference value: 512 microg/ml); format: functional; details: dose microM <=10
Pseudomonas aeruginosa [13] = test: Antibacterial activity against Pseudomonas aeruginosa PAO1 assessed as fractional inhibitory concentration index in presence of Rifampicin incubated for 18 hrs by broth microdilution assay based checkerboard assay; format: functional
Pseudomonas aeruginosa [14] = test: Antibacterial activity against Pseudomonas aeruginosa PAO1 assessed as fractional inhibitory concentration index in presence of Tobramycin incubated for 18 hrs by broth microdilution assay based checkerboard assay; format: functional
Pseudomonas aeruginosa [15] = test: Antibacterial activity against Pseudomonas aeruginosa PAO1 assessed as fractional inhibitory concentration index in presence of Minocycline incubated for 18 hrs by broth microdilution assay based checkerboard assay; format: functional
Pseudomonas aeruginosa [16] = test: Antibacterial activity against Pseudomonas aeruginosa PAO1 assessed as fractional inhibitory concentration index in presence of Tigecycline incubated for 18 hrs by broth microdilution assay based checkerboard assay; format: functional
Pseudomonas aeruginosa [17] = test: Antibacterial activity against Pseudomonas aeruginosa PAO1 assessed as fractional inhibitory concentration index in presence of Trimethoprim incubated for 18 hrs by broth microdilution assay based checkerboard assay; format: functional
Pseudomonas aeruginosa [18] = test: Antibacterial activity against Pseudomonas aeruginosa PAO1 assessed as fractional inhibitory concentration index in presence of Vancomycin incubated for 18 hrs by broth microdilution assay based checkerboard assay; format: functional
Pseudomonas aeruginosa [19] = test: Antibacterial activity against Pseudomonas aeruginosa PAO1 assessed as fractional inhibitory concentration index in presence of Aztreonam incubated for 18 hrs by broth microdilution assay based checkerboard assay; format: functional
Pseudomonas aeruginosa [20] = test: Antibacterial activity against Pseudomonas aeruginosa PAO1 assessed as fractional inhibitory concentration index in presence of Fosfomycin incubated for 18 hrs by broth microdilution assay based checkerboard assay; format: functional
Pseudomonas aeruginosa [21] = test: Antibacterial activity against Pseudomonas aeruginosa PAO1 assessed as fractional inhibitory concentration index in presence of Nitrofurantoin incubated for 18 hrs by broth microdilution assay based checkerboard assay; format: functional
Pseudomonas aeruginosa [22] = test: Antibacterial activity against Pseudomonas aeruginosa PAO1 assessed as fractional inhibitory concentration index in presence of Clindamycin incubated for 18 hrs by broth microdilution assay based checkerboard assay; format: functional
Pseudomonas aeruginosa [23] = test: Antibacterial activity against Pseudomonas aeruginosa PAO1 assessed as fractional inhibitory concentration index in presence of Erythromycin incubated for 18 hrs by broth microdilution assay based checkerboard assay; format: functional
Pseudomonas aeruginosa [24] = test: Antibacterial activity against Pseudomonas aeruginosa PAO1 assessed as fractional inhibitory concentration index in presence of Pleuromutilin incubated for 18 hrs by broth microdilution assay based checkerboard assay; format: functional
Pseudomonas aeruginosa [25] = test: Antibacterial activity against Pseudomonas aeruginosa PAO1 assessed as fractional inhibitory concentration index in presence of Colistin incubated for 18 hrs by broth microdilution assay based checkerboard assay; format: functional
[26] = Cytotoxicity against human HepG2 cells assessed as cell viability at <10 uM incubated for 48 hrs prestoblue assay; format: cell-based; details: read-out: Activity
[27] = Hemolytic activity in porcine erythrocyte at 1024 ug/ml incubated for 1 hr; format: ADME, cell-based, Sus scrofa; details: pig, porcine erythrocytes, at 1024 µg/mL, read-out: Activity
Pseudomonas aeruginosa [28] = test: Antibacterial activity against Pseudomonas aeruginosa 260-97103 assessed as reduction in bacterial growth incubated for 18 hrs by broth microdilution assay; format: functional
Pseudomonas aeruginosa [29] = test: Antibacterial activity against Pseudomonas aeruginosa 262-101856 assessed as reduction in bacterial growth incubated for 18 hrs by broth microdilution assay; format: functional
Pseudomonas aeruginosa [30] = test: Antibacterial activity against Pseudomonas aeruginosa 264-101354 assessed as reduction in bacterial growth incubated for 18 hrs by broth microdilution assay; format: functional
Pseudomonas aeruginosa [31] = test: Antibacterial activity against Pseudomonas aeruginosa 101243 assessed as fractional inhibitory concentration index in presence of doxycycline incubated for 18 hrs by broth microdilution assay; format: functional
Pseudomonas aeruginosa [32] = test: Antibacterial activity against Pseudomonas aeruginosa 262-101856 assessed as fractional inhibitory concentration index in presence of chloramphenicol incubated for 18 hrs by broth microdilution assay; format: functional
Pseudomonas aeruginosa [33] = test: Antibacterial activity against Pseudomonas aeruginosa 91433 assessed as fractional inhibitory concentration index in presence of doxycycline incubated for 18 hrs by broth microdilution assay; format: functional
Pseudomonas aeruginosa [34] = test: Antibacterial activity against Pseudomonas aeruginosa 91433 assessed as fractional inhibitory concentration index in presence of chloramphenicol incubated for 18 hrs by broth microdilution assay; format: functional

| Compound | MIC [1] [µg/mL] | MIC (Escherichia coli) [µg/mL] | MIC (Pseudomonas aeruginosa [2]) [µg/mL] | MIC (Acinetobacter baumannii) [µg/mL] | MIC (Pseudomonas aeruginosa [3]) [µg/mL] | MIC (Pseudomonas aeruginosa [4]) [µg/mL] | MIC (Pseudomonas aeruginosa [5]) [µg/mL] | MIC (Pseudomonas aeruginosa [6]) [µg/mL] | MIC (Pseudomonas aeruginosa [7]) [µg/mL] | MIC (Pseudomonas aeruginosa [8]) [µg/mL] | MIC (Pseudomonas aeruginosa [9]) [µg/mL] | MIC (Pseudomonas aeruginosa [10]) [µg/mL] | MIC (Pseudomonas aeruginosa [11]) [µg/mL] | MIC (Pseudomonas aeruginosa [12]) [µg/mL] | fractional inhibitory concentration index (FICI) (Pseudomonas aeruginosa [13]) | MIC (Pseudomonas aeruginosa [28]) [µg/mL] | MIC (Pseudomonas aeruginosa [29]) [µg/mL] | MIC (Pseudomonas aeruginosa [30]) [µg/mL] | fractional inhibitory concentration index (FICI) (Pseudomonas aeruginosa [31]) | fractional inhibitory concentration index (FICI) (Pseudomonas aeruginosa [32]) | other results |
| --- | --- | --- | --- | --- | --- | --- | --- | --- | --- | --- | --- | --- | --- | --- | --- | --- | --- | --- | --- | --- | --- |
| CO[C@H]1/C=C/O[C@@]2(C)Oc3c(C)c(O)c4c(O)c(c(/C=N/N5CCN(Cc6cn(CCCCO[C@@H]7[C@@H](O[C@H]8O[C@H](CO)[C@@H](O)[C@H](N)[C@H]8O)[C@H](N)C[C@H](N)[C@H]7O[C@H]7O[C@H](CN)[C@@H](O)C[C@H]7N)nn6)CC5)c(O)c4c3C2=O)NC(=O)/C(C)=C\C=C\[C@H](C)[C@H](O)[C@@H](C)[C@@H](O)[C@@H](C)[C@H](OC(C)=O)[C@@H]1C.O=C(O)C(F)(F)F.O=C(O)C(F)(F)F.O=C(O)C(F)(F)F.O=C(O)C(F)(F)F.O=C(O)C(F)(F)F | 2 | > 32 | > 32 | > 32 | 256 | 2 | 1 | 1 | 64 | 16 | 512 | 128 | 512 | 256 | 0.28 | > 128 | > 256 | 256 |  |  | fractional inhibitory concentration index (FICI) (Pseudomonas aeruginosa [14]): 1.03; fractional inhibitory concentration index (FICI) (Pseudomonas aeruginosa [15]): 0.26; fractional inhibitory concentration index (FICI) (Pseudomonas aeruginosa [16]): 0.51; fractional inhibitory concentration index (FICI) (Pseudomonas aeruginosa [17]): 1.03; fractional inhibitory concentration index (FICI) (Pseudomonas aeruginosa [18]): 1.03; fractional inhibitory concentration index (FICI) (Pseudomonas aeruginosa [19]): 1.03; fractional inhibitory concentration index (FICI) (Pseudomonas aeruginosa [20]): 1.03; fractional inhibitory concentration index (FICI) (Pseudomonas aeruginosa [21]): 1; fractional inhibitory concentration index (FICI) (Pseudomonas aeruginosa [22]): 0.53; fractional inhibitory concentration index (FICI) (Pseudomonas aeruginosa [23]): 0.53; fractional inhibitory concentration index (FICI) (Pseudomonas aeruginosa [24]): 1.03; fractional inhibitory concentration index (FICI) (Pseudomonas aeruginosa [25]): 0.53; viability at 48 h [26]: > 90%; hemolysis at 1 h, 1024 ug/ml [27]: < 2% |
| NC[C@H]1O[C@H](O[C@H]2[C@H](O)[C@@H](O[C@H]3O[C@H](CO)[C@@H](O)[C@H](N)[C@H]3O)[C@H](N)C[C@@H]2N)[C@H](N)C[C@@H]1O [TOBRAMYCIN] | 2 (≈ 4.28 µM) | 8 (≈ 17.1 µM) | 16 (≈ 34.2 µM) | 32 (≈ 68.4 µM) | 0.5 (≈ 1.07 µM) |  |  |  |  |  |  |  |  |  |  | 32 (≈ 68.4 µM) | 1020 (≈ 2190 µM) | 128 (≈ 274 µM) | 1.5 | <=1 | fractional inhibitory concentration index (FICI) (Pseudomonas aeruginosa [33]): 1.5; fractional inhibitory concentration index (FICI) (Pseudomonas aeruginosa [34]): 1.5 |
| CO[C@H]1/C=C/O[C@@]2(C)Oc3c(C)c(O)c4c(O)c(c(/C=N/N5CCN(Cc6cn(CCCCCCO[C@@H]7[C@@H](O[C@H]8O[C@H](CO)[C@@H](O)[C@H](N)[C@H]8O)[C@H](N)C[C@H](N)[C@H]7O[C@H]7O[C@H](CN)[C@@H](O)C[C@H]7N)nn6)CC5)c(O)c4c3C2=O)NC(=O)/C(C)=C\C=C\[C@H](C)[C@H](O)[C@@H](C)[C@@H](O)[C@@H](C)[C@H](OC(C)=O)[C@@H]1C.Cl.Cl.Cl.Cl.Cl | 4 | > 32 | > 32 | > 32 | 128 | 2 | 0.5 | 1 | 32 | 2 | 256 | 32 | 128 | 128 | 0.28 | > 128 | > 256 | 256 | 0.125 | <0.125 | fractional inhibitory concentration index (FICI) (Pseudomonas aeruginosa [14]): 1.03; fractional inhibitory concentration index (FICI) (Pseudomonas aeruginosa [15]): 0.28; fractional inhibitory concentration index (FICI) (Pseudomonas aeruginosa [16]): 0.51; fractional inhibitory concentration index (FICI) (Pseudomonas aeruginosa [17]): 0.53; fractional inhibitory concentration index (FICI) (Pseudomonas aeruginosa [18]): 1.03; fractional inhibitory concentration index (FICI) (Pseudomonas aeruginosa [19]): 1.03; fractional inhibitory concentration index (FICI) (Pseudomonas aeruginosa [20]): 0.15; fractional inhibitory concentration index (FICI) (Pseudomonas aeruginosa [21]): 0.53; fractional inhibitory concentration index (FICI) (Pseudomonas aeruginosa [22]): 0.28; fractional inhibitory concentration index (FICI) (Pseudomonas aeruginosa [23]): 0.15; fractional inhibitory concentration index (FICI) (Pseudomonas aeruginosa [24]): 0.28; fractional inhibitory concentration index (FICI) (Pseudomonas aeruginosa [25]): 0.53; fractional inhibitory concentration index (FICI) (Pseudomonas aeruginosa [33]): 0.25; fractional inhibitory concentration index (FICI) (Pseudomonas aeruginosa [34]): 0.375; viability at 48 h [26]: > 90%; hemolysis at 1 h, 1024 ug/ml [27]: < 2% |
| CO[C@H]1/C=C/O[C@@]2(C)Oc3c(C)c(O)c4c(O)c(c(/C=N/N5CCN(C)CC5)c(O)c4c3C2=O)NC(=O)/C(C)=C\C=C\[C@H](C)[C@H](O)[C@@H](C)[C@@H](O)[C@@H](C)[C@H](OC(C)=O)[C@@H]1C [RIFAMPIN] | ≤ 0.25 | 8 (≈ 9.72 µM) | 32 (≈ 38.9 µM) | 8 (≈ 9.72 µM) | 16 (≈ 19.4 µM) |  |  |  |  |  |  |  |  |  |  | 16 (≈ 19.4 µM) | 512 (≈ 622 µM) | 16 (≈ 19.4 µM) | 1.5 | 1.5 |  |
